For series [1], the system named is HIF-dependent reporter (HRE-Luc). Nature of the series: HIF-dependent luciferase reporter (HRE-Luc) assay in SKBR3 cells. It counts as cell-based, human. To be noted: DP (100 uM), DES (50 uM) or 4HT (10 uM). The protocol: All human cancer cells were maintained in the following basal media (Invitrogen) supplemented with 10% fetal bovine serum: breast cancer cell line MDA-MB-435 in DMEM/F12, melanoma WM266 cells in McCoy's 5A, breast cancer SKBr3 in DMEM. […] The antibiotic G418 was added in the medium (800 ug/mL) for selection of stable dnERR transfectants. Anaerobic culture was achieved using GasPak Pouch System (BD Biosciences). The HIF-dependent reporter HRE-Luc was generated by inserting the two copies of synthetic HRE from PGK1 into a pGL3 luciferase vector. (Promega) Epo-Luc and PGK1-Luc were created by cloning the PCR-amplified HIF-dependent enhancer and promoter regions of Epo and PGK1, respectively, Full-length EST clones encoding ERR-α, -β, -γ, HIF-1α, -2α, -1β were used for in vitro translation (Promega TNT kit), production of GST fusions by cloning into the pGEX vector, and mammalian expression by cloning into modified pcDNA3 vectors with Flag or HA epitope tags. ERR Deletion mutants were generated by PCR. dnERR was constructed by PCR amplification of ERRβ DBD and Engrailed repression domain, followed by a three-way ligation into pcDNA3. Anti-Flag, -HA, -ERRα, and -HIF1α antibodies were obtained from Sigma, Covance, Upstate, and BD Biosciences and Novus, respectively.
Background: A reporter such as luciferase makes a cellular process visible.

The subject of series [2] is hypoxic genes (VEGF, PGK1, LDHA, Eno1, Glut1) in MDA-MB-435 cells. The experiment in a line: Northern blot of hypoxic gene expression in MDA-MB-435 breast cancer cells. To be noted: severe hypoxia, DES (50 uM). Type of series: cell-based, human. The text has this:
(§1) For Northern blot analysis, nylon membranes carrying total RNA samples were hybridized with probes made from cDNA fragments encoding for VEGF, PGK1, lactate dehydrogenase A(LDHA), Enolase 1 (Eno1), and Glucose transporter 1 (Glut1). The 18s rRNA and β-actin served as loading controls.
All human cancer cells were maintained in the following basal media (Invitrogen) supplemented with 10% fetal bovine serum: breast cancer cell line MDA-MB-435 in DMEM/F12, melanoma WM266 cells in McCoy's 5A, breast cancer SKBr3 in DMEM. […] The antibiotic G418 was added in the medium (800 ug/mL) for selection of stable dnERR transfectants. Anaerobic culture was achieved using GasPak Pouch System (BD Biosciences).
All procedures followed standard molecular biology techniques. […] HIFα was not stable.
The HIF-mediated hypoxic response is defined by transcriptional activation of many hypoxic genes. We asked whether inhibition of ERR was capable of blocking hypoxic-induced transcription of endogenous genes.

For series [3], the system named is hypoxic genes (VEGF, glycolytic enzymes) in SKBR3 cells. The experiment in a line: Northern blot of hypoxic gene expression in SKBR3 breast cancer cells. It counts as cell-based, human. To be noted: DP (100 uM), DES (50 uM). From the text:
For Northern blot analysis, nylon membranes carrying total RNA samples were hybridized with probes made from cDNA fragments encoding for VEGF, PGK1, lactate dehydrogenase A(LDHA), Enolase 1 (Eno1), and Glucose transporter 1 (Glut1). The 18s rRNA and β-actin served as loading controls. […] All human cancer cells were maintained in the following basal media (Invitrogen) supplemented with 10% fetal bovine serum: breast cancer cell line MDA-MB-435 in DMEM/F12, melanoma WM266 cells in McCoy's 5A, breast cancer SKBr3 in DMEM. […] The antibiotic G418 was added in the medium (800 ug/mL) for selection of stable dnERR transfectants. Anaerobic culture was achieved using GasPak Pouch System (BD Biosciences). All procedures followed standard molecular biology techniques. […] The HIF-mediated hypoxic response is defined by transcriptional activation of many hypoxic genes.

For series [4], the system named is HIF1α. The experiment in a line: Western blot analysis for HIF1α in SKBR3 cells. To be noted: DP and DES. Type of series: cell-based, human. From the text:
HIF1α was detected with anti-HIF1α antibody. The same blot was reprobed with an antitubulin antibody. Tubulin served as a loading control. All procedures followed standard molecular biology techniques.
(A western blot detects proteins with antibodies after separation by electrophoresis.)

The test system of series [5] is MDA-MB-435 breast cancer xenograft. Nature of the series: Tumor xenograft experiment, human MDA-MB-435 breast cancer cells in SCID mice. Type of series: in vivo. The note with it: 750 μg DES daily, oral. Here is the method: Tumor volume was measured weekly.
Tumor xenografts were harvested at time of necropsy (after 3 weeks of treatment) and weighed. […] Scale Bars represent average tumor weight.
MDA-MB-435 cells (5×10^6) were resuspended in a mixture of 100 uL of PBS and Matrigel (BD Biosciences, Bedford, Mass.; 2:1 ratio), and injected subcutaneously into the fourth mammary gland fat pad of 6- to 8-week-old female severe combined immunodeficient (SCID) mice. […] The mice bearing tumor xenografts were randomly divided into two groups. […] Tumors were serially measured weekly with a ruler and the tumor volumes were calculated with the following formula: volume (mm^3)=width^2× length/2. After 3 weeks of treatment, the mice were euthanized. All animal studies were approved by the Institutional Animal Care and Use Committee (IACUC) at the University of Florida.
At the end of treatment, tumors were excised and analyzed.

Series [6] has as its system tumor angiogenesis in MDA-MB-435 xenograft. The experiment in a line: CD34 immunostaining of tumor xenografts for blood vessel density. To be noted: 750 μg DES daily, oral, after 3 weeks of treatment. It counts as in vivo, mice. The protocol: Tumor transplants were processed and subjected to CD34 immunostaining for blood vessels (brown staining). […] Scale bars, 65 μm. […] Microvessel density was determined by counting the number of CD34 positive blood vessels from four randomly chosen visual fields from each group of tumors. The average number in the fields was taken as the mean of vessel density of the group. Tumors were dissected at time of necropsy, weighed, and fixed in 4% paraformaldehyde in PBS overnight. Samples were dehydrated in 70% ethanol, paraffin embedded, and sectioned ([…]). Deparaffinized sections were stained for CD34 to assess blood vessel density. Briefly, samples were microwaved in sodium citrate (pH 6) for 20 min. for antigen retrieval, and treated with 3% H2O2 at room temperature for 20 min. to quench endogenous peroxidase activity. Sections were then blocked in 1.5% rabbit serum and incubated with rat anti-mouse CD34 antibody (1:100 dilution, clone MEC14.7, BioLegend), followed by biotinylated rabbit anti-rat IgG (1:200 dilution; Vector Laboratories). Detection was done with avidin-biotin-HRP complex (Vector laboratories) and di-aminobenzidin as chromogen. […] As angiogenesis is a key part of hypoxic response and is required to support tumor growth beyond a certain threshold size, we assessed tumor vascularization by performing immunohistochemical staining using anti-CD34 antibody. […]

Series [7] concerns ERRs (ERRα, ERRβ, ERRγ). To be noted: literature (Tremblay et al, 2001; Ariazi and Jordan, 2006); cited from earlier work.
Series [8] deals with pregnant female mice. The note with it: DES 500 μg/mouse; literature (Tremblay et al, 2001); cited from earlier work.
In series [9] the test system is hypoxic genes in A549 lung cancer cells. The experiment in a line: Hypoxic gene expression in A549 lung cancer cells. It counts as cell-based, human. To be noted: A549 lung cancer cells treated with DP and RES.
Excerpt: as §1

Series [10] has as its target ERRγ-HIF association (Homo sapiens, UniProt P62508). The note with it: DES (50 μM) or 4HT (10 μM); GST pulldown.
Procedure: In vitro translated HIF proteins were mixed with GST or GST-ERR fusions and assayed for binding.
All procedures followed standard molecular biology techniques. […] For GST binding and IP, we used the following binding buffer (20 mM Tris, pH7.5, 150 mM NaCl, 0.5% NP-40, and protease inhibitor cocktail (Roche)). […] In later experiments, we added proteasome inhibitor MG132 (10 uM) into the buffer.
We examined whether mammalian HIF and ERR proteins interact with each other in vitro by the common glutathione S-transferase (GST) pulldown assay. We fused full-length cDNAs of ERRα, β, and γ to GST and generated fusion proteins in bacteria. We assayed them for binding to in vitro translated full-length HIF1α, HIF2α, and HIF1β.
These compounds were tested to determine whether they might interfere with the ERR-HT interaction.

“Also recorded” adds a separate entry of the source.

This is an account of results in US20100210735A1, “Modulating the Activity of Nuclear Receptors in Order to Treat Hypoxia-Related Disorders” (UNIVERSITY OF FLORIDA RESEARCH FOUNDATION, INC., priority 2007, published 2010).

Sequence of ERRγ-HIF association (P62508 whole entry): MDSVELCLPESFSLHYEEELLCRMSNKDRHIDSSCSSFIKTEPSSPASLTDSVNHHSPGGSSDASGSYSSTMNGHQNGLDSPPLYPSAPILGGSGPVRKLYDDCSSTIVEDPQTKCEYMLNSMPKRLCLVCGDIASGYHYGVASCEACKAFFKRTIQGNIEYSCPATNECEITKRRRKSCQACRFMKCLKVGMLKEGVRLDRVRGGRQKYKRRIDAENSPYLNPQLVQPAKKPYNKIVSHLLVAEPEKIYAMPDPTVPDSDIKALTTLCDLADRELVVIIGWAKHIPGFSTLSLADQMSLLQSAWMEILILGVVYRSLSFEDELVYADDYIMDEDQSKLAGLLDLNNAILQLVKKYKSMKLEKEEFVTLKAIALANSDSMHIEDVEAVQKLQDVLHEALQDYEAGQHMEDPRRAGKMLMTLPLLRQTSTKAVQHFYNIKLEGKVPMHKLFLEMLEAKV
Sequence of ERRγ-HIF association (Q16665 whole entry partner): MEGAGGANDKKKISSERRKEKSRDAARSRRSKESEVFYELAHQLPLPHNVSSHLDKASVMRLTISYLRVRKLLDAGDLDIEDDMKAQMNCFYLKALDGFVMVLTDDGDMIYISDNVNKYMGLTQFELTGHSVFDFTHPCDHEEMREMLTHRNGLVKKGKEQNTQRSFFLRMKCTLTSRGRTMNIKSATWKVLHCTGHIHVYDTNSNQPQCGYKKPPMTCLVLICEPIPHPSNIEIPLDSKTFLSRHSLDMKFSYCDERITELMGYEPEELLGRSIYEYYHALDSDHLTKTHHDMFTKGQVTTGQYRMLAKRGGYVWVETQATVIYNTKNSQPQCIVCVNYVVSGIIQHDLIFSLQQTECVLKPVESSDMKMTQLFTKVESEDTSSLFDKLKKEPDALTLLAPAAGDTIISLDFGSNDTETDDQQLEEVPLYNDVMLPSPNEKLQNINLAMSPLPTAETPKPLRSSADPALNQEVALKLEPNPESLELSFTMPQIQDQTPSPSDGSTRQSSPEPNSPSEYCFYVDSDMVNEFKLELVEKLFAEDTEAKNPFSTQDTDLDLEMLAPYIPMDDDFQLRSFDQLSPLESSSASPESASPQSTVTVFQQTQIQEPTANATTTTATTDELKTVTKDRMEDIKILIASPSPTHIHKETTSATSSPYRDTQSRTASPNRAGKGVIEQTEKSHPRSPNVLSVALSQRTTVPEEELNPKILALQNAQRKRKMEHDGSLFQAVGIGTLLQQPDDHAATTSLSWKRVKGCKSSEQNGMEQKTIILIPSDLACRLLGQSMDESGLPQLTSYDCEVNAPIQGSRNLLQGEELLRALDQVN
Sequence of ERRγ-HIF association (P27540 whole entry partner): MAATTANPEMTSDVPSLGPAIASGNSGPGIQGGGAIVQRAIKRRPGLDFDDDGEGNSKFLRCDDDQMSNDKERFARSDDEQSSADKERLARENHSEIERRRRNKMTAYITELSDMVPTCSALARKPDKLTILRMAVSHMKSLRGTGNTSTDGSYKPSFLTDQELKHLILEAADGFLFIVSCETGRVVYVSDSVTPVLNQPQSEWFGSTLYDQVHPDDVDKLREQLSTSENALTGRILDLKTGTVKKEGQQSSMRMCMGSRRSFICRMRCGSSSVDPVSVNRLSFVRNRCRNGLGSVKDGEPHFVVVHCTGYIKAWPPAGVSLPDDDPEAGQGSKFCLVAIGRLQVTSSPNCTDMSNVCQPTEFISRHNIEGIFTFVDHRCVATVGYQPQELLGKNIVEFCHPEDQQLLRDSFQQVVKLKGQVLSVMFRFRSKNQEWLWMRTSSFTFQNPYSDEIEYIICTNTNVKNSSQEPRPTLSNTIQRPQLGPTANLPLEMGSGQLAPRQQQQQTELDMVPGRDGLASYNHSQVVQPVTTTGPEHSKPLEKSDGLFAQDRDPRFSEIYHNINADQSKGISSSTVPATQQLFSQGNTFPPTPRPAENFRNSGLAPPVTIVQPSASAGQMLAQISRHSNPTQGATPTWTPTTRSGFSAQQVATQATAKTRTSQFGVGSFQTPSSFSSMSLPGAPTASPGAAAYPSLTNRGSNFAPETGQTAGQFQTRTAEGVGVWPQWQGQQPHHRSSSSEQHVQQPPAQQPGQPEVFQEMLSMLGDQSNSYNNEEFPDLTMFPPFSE

On to `CC/C(=C(/CC)c1ccc(O)cc1)c1ccc(O)cc1` [DES, diethylstilbestrol], for which the “activation of the HIF-dependent reporter by DP-induced HIF stabilization” value in [1] is “severely impaired; also recorded: attenuates HIF activity”. Besides, the “transcriptional induction of HIF target genes” value in [2] and in [3] was “largely abolished” in each case. Besides, the “HIF1α protein stabilization by DP” value in series [4] is reported as “stabilized normally”. For the same molecule, in series [5] (3 weeks, SCID mice), the “tumor volumes and growth rate versus vehicle-treated control” value is on record as “dramatic reduction”. In series [5] (SCID mice), the “tumor xenograft growth upon treatment” value is “essentially stopped growing”. In addition, the “tumor weight at end of treatment versus vehicle-treated mice” value in series [5] (after 3 weeks of treatment) is reported as “about 3 times lighter”. For the same molecule, in [6], the “micro vascular density in tumors (CD34 positive blood vessels)” value is “clear reduction; also recorded: few blood vessels; also recorded: reduced”. In addition, in series [7], the “activity on ERRs / ERR-coactivator interaction” value was “antagonist of all three ERRs”. The “effect in pregnant female mice” value in series [8] was “placental defects”.
In the case of `Oc1ccc(C=Cc2cc(O)cc(O)c2)cc1` [resveratrol], the hypoxia-induced gene transcription result is on record as “manifested inhibitory activities” in [9] and “reduced hypoxic gene expression” in [9] (listed as Resveratrol). In series [7], the “activity on ERRs / ERR-coactivator interaction” value was “capable of dissociating coactivator complexes from all three ERRs, albeit at higher concentrations than DES”.
In the case of 4-hydroxytamoxifen [4HT], in series [1], the “activation of the HIF-dependent reporter by DP-induced HIF stabilization” value is reported as “Lack of effects”. For the same molecule, the “effect on ERRγ-HIF association” value in series [10] is reported as “resistant; also recorded: insensitive”. For the same molecule, the “activity on ERRs / ERR-coactivator interaction” value in [7] is given as “selectively inhibits ERRγ”.
